Laboratory results taken from PMC6941124 (International Journal of Molecular Sciences, 2019).
Where “and” joins values, the source holds several entries; their conditions need not be identical. Equal values may be shown once.

Legend:
[1] = test system: HeLa CK1δ−/− cells expressing CK1δ R168H; test: MTT viability assay, HeLa CK1δ−/− cells expressing CK1δ R168H; format: cell-based; settings: 5 μM, 48 h
Experimental: (§1) Parental HeLa cells, as well as HeLa CSNK1D knock-out cells (CK1δ^−/−) (generated by CRISP/Cas9 technology and provided by EDIGENE, Beijing, China), were cultured in Dulbecco’s Modified Eagle medium (DMEM). HCT-116 and HT-29 colon cancer cells were cultured in McCoy’s 5A medium whereas SW480 and SW620 colon cancer cells were cultured in Leibovitz’s L-15 medium. All media were supplemented with 10% (v/v) fetal bovine serum (FBS), 100 units/mL penicillin, and 100 µg/mL streptomycin. DMEM-based medium for the culture of HeLa CSNK1D knock-out cells was additionally supplemented with 1 μg/mL puromycin. Cell cultures were maintained at 37 °C in a humidified atmosphere containing 5% CO2. Cells were transfected using Effectene transfection reagent (Qiagen, Hilden, Germany) according to the manufacturer’s instructions. […]
(§2) For performing MTT viability assays, cells were seeded in a 96-well plate (5 × 10^4 cells/well for HeLa cells (parental, CK1δ^−/−, or CK1δ^−/− cells stably transfected with wild type or mutant CK1δ), HCT-116, and HT-29 cells or 7.5 × 10^4 cell/well for SW480 and SW620 cells). […] Absorbance was measured at 570 nm with TriStar^2 LB942 Microplate Reader (Berthold Technologies, Bad Wildbad, Germany) and data analysis was performed using GraphPad Prism 6 (GraphPad Software, San Diego, CA, USA).

SW620 colon cancer cells = test: MTT viability assay, SW620; format: cell-based, human; settings: 48 h; for Reduction of cell viability, SW620: 10 µM, initial screening (Figure 10a)
Experimental: (§3) Parental HeLa cells, as well as HeLa CSNK1D knock-out cells (CK1δ^−/−) (generated by CRISP/Cas9 technology and provided by EDIGENE, Beijing, China), were cultured in Dulbecco’s Modified Eagle medium (DMEM). HCT-116 and HT-29 colon cancer cells were cultured in McCoy’s 5A medium whereas SW480 and SW620 colon cancer cells were cultured in Leibovitz’s L-15 medium. All media were supplemented with 10% (v/v) fetal bovine serum (FBS), 100 units/mL penicillin, and 100 µg/mL streptomycin. DMEM-based medium for the culture of HeLa CSNK1D knock-out cells was additionally supplemented with 1 μg/mL puromycin. Cell cultures were maintained at 37 °C in a humidified atmosphere containing 5% CO2. Cells were transfected using Effectene transfection reagent (Qiagen, Hilden, Germany) according to the manufacturer’s instructions. For selection of stably transfected clones, transfected cells were grown in selective medium, containing 0.6 mg/mL of G-418 (Calbiochem-Merck Millipore, Darmstadt, Germany).
(§4) For performing MTT viability assays, cells were seeded in a 96-well plate (5 × 10^4 cells/well for HeLa cells (parental, CK1δ^−/−, or CK1δ^−/− cells stably transfected with wild type or mutant CK1δ), HCT-116, and HT-29 cells or 7.5 × 10^4 cell/well for SW480 and SW620 cells). After 24 h, old medium was replaced with fresh medium containing either the small molecule of interest or DMSO as control. After 48 h of treatment, 10 μL MTT (5 mg/mL) was added and incubated at 37 °C for 4 h. The medium was then gently removed and 100 μL of acidic isopropanol was added (90% (v/v) isopropanol, 10% (v/v) 1 N HCl). Cell culture plates were then shaken for 30 min at room temperature. Absorbance was measured at 570 nm with TriStar^2 LB942 Microplate Reader (Berthold Technologies, Bad Wildbad, Germany) and data analysis was performed using GraphPad Prism 6 (GraphPad Software, San Diego, CA, USA).

[2] = test system: HeLa CK1δ−/− cells expressing CK1δ R127Q; test: MTT viability assay, HeLa CK1δ−/− cells expressing CK1δ R127Q; format: cell-based; settings: 5 μM, 48 h
Experimental: as §1, §2

SW480 colon cancer cells = test: MTT viability assay, SW480; format: cell-based, human; settings: 10 µM, 48 h, initial screening (Figure 10a)
Experimental: as §3, §4

[3] = target: CK1δ wild type (GST-CK1δ) (Homo sapiens, UniProt P48730); test: in vitro kinase assay, GST-CK1δ wild type; format: biochemical; settings: for Kinase activity of CK1δ in presence of inhibitor: 10 µM inhibitor, initial screening; for IC50: dilution series 0.005−10 µM, mean ± standard error, triplicate
Experimental: Overexpression and purification of GST-CK1δ fusion proteins, either wild type or mutant, were performed as described previously.
Each kinase assay reaction was performed in kinase buffer (25 mM Tris-HCl (pH 7.5), 10 μM ATP, 10 mM MgCl2, 100 μM EDTA) in presence of purified GST-CK1δ kinase as source of enzyme (either wild type or mutant), an assay-specific substrate (α-casein, GST-p53^1−64, or GST-β-catenin^1−181), and radiolabeled ATP (2 μCi [γ-^32P]-ATP). For performing Michaelis–Menten analysis increasing substrate concentrations were used (α-casein: 0.39−25 μM; GST-p53^1−64: 0.09−1.87 μM; GST-β-catenin^1−181: 0.07−1.32 μM). For biological evaluation of small molecule inhibitors (SMIs), each inhibitor compound was either tested at 10 μM concentration for initial screening or by using a dilution series (0.005−10 µM) for determination of IC50 values. DMSO was used as control. Reactions were incubated for 30 min at 30 °C and reactions were stopped using 5x SDS-loading buffer (250 mM Tris-HCl [pH 6.8], 25% (v/v) β-mercaptoethanol (MSH), 50% (v/v) glycerol, 10% (w/v) SDS, 0.5% (w/v) bromphenol blue). Subsequently, samples were separated by SDS-PAGE using 12.5% acrylamide gels, stained with Coomassie, and phosphorylated substrates were visualized on X-ray film. Incorporation of radiolabeled phosphate was quantified by scintillation counting of Coomassie-stained substrate bands. Defined dilutions of the reaction master mix were counted as well in order to convert results obtained as counts per minute (CPM) to units of transferred phosphate in pmol/min. Michaelis–Menten analysis was performed using GraphPad Prism 6 (GraphPad Software, San Diego, CA, USA).

CK1α = CK1α (Homo sapiens, UniProt P48729); test: in vitro kinase assay, CK1α; format: biochemical; settings: 10 µM inhibitor, initial screening
HeLa CK1δ−/− cells = test: MTT viability assay, HeLa CK1δ−/− cells; format: cell-based; settings: 5 μM, 48 h
Experimental: as §3, §4

[4] = test system: HeLa CK1δ−/− cells expressing CK1δ T67S; test: MTT viability assay, HeLa CK1δ−/− cells expressing CK1δ T67S; format: cell-based; settings: 5 μM, 48 h
Experimental: as §1, §2

[5] = test system: HCT-116 colon cancer cells; test: MTT viability assay, HCT-116; format: cell-based; settings: 48 h, dose series (Figure S2)
Experimental: as §1, §2

HT-29 colon cancer cells = test: MTT viability assay, HT-29; format: cell-based; settings: 10 µM, 48 h, initial screening (Figure 10a)
Experimental: as §3, §4

CK1γ = test: in vitro kinase assay, CK1γ; format: biochemical; settings: 10 µM inhibitor, initial screening
CK1ε = CK1ε (Homo sapiens, UniProt P49674); test: in vitro kinase assay, CK1ε; format: biochemical; settings: 10 µM inhibitor, initial screening
Chain of CK1ε (P49674 whole entry): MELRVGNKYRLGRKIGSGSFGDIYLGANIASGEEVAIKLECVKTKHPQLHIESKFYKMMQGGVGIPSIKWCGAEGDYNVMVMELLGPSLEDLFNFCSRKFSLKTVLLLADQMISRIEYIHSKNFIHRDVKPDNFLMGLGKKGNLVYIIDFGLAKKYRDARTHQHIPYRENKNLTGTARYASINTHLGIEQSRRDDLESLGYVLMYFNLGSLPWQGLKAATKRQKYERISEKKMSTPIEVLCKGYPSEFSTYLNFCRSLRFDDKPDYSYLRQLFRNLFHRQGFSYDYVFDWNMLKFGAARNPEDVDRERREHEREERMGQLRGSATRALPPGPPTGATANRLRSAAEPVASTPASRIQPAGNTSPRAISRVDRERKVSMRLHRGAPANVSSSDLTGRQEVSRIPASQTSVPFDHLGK

Chain of CK1δ wild type (GST-CK1δ) (P48730 whole entry, the tested form may be a part): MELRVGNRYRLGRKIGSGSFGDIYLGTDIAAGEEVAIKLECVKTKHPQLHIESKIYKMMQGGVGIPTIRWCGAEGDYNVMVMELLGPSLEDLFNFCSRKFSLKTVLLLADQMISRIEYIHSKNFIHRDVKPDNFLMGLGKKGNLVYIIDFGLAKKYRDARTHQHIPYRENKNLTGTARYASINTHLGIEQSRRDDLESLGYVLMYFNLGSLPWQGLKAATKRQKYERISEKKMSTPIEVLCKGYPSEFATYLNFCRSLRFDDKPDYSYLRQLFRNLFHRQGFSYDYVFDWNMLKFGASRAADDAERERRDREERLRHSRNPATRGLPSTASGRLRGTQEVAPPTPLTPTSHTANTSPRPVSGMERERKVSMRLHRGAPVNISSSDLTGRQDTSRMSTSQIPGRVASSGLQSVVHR
Chain of CK1α (P48729 whole entry): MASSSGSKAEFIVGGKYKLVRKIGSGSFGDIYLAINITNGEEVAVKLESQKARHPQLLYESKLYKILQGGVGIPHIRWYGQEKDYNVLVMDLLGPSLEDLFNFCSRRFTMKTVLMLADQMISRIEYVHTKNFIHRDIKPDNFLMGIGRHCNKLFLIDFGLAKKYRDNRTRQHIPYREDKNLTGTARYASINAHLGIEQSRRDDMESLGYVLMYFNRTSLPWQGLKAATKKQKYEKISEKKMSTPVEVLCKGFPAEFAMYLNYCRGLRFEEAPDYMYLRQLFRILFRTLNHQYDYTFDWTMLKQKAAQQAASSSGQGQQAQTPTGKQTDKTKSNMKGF

EC50 (SW620 colon cancer cells; Homo sapiens, SW-620, 0.625-20 µM, MTT, read-out: EC50 (SW620), cell viability)	Kinase activity of CK1δ in presence of inhibitor [3]	IC50 [3]	Reduction of CK1α activity (CK1α)	Kinase activity of CK1γ in presence of inhibitor (CK1γ)	Kinase activity of CK1ε in presence of inhibitor (CK1ε)	Structure (SMILES)	Cell viability of HeLa CK1δ−/− cells expressing CK1δ R168H vs CK1δ WT [1]	Reduction of cell viability, SW620 (SW620 colon cancer cells)	Dose-dependent effects on SW620 cell viability (SW620 colon cancer cells; 0.625 to 20 µM, MTT (Figure S2))	Cell viability of HeLa CK1δ−/− cells expressing CK1δ R127Q vs CK1δ WT [2]	Reduction of cell viability, SW480 (SW480 colon cancer cells)	Cell viability of HeLa CK1δ−/− compared to parental cells or HeLa CK1δ+/+ cells (HeLa CK1δ−/− cells)	Cell viability of HeLa CK1δ−/− cells expressing CK1δ T67S vs CK1δ WT [4]	Reduction of cell viability, HCT-116 ([5]; 0.625 µM)	Reduction of cell viability, HT-29 (HT-29 colon cancer cells)	Reduction of cell viability, HCT-116 ([5]; 1.25 µM)
3000 nM	strongly inhibited	90 nM and 86 nM	at least 50%	not affected	strongly inhibited	COc1ccc(Cn2c(SCC(=O)Nc3nc4ccc(C(F)(F)F)cc4s3)nccc2=O)cc1 [Compound 20, 2-((3-(4-Methoxybenzyl)-4-oxo-3,4-dihydropyrimidin-2-yl)thio)-N-(6-(trifluoromethyl)benzo[d]thiazol-2-yl)acetamide]	no mutant-specific effects	about 60%	clear dose-dependent effects	no mutant-specific effects	approximately 35%	significantly less affected	no mutant-specific effects	approximately 30%	approximately 35%	
	strongly inhibited	240 ± 40 nM	at least 50%	not affected	strongly inhibited	O=C(CSc1nccc(=O)n1Cc1ccccc1F)Nc1nc2ccc(C(F)(F)F)cc2s1 [Compound 22]		25%			approximately 35%				approximately 35%	approximately 30%
